According to US20230124862A1, “BISMUTH THIOL COMPOUNDS AND COMPOSITIONS AND METHODS OF TREATING MICROBIAL CO-INFECTIONS” (Microbion Corporation, priority 2020, published 2023):
Where two headings read alike, the source gives them in different places.

Key:
B. cenocepacia = assay: MIC testing of CF isolates; type: cell-based, Burkholderia cenocepacia
Escherichia coli = assay: Broth microdilution MIC (Example 12); type: cell-based
Achromobacter spp. = assay: MIC testing of CF isolates; type: cell-based
B. cepacia = assay: MIC testing of CF isolates; type: cell-based, Burkholderia cepacia; details: B. cepacia (B. cepacia complex) (BC17)
B. multivorans = assay: MIC testing of CF isolates; type: cell-based, Burkholderia multivorans; details: B. multivorans (B. cepacia complex) (BC5b)
M. abscessus complex = assay: MIC testing of CF isolates; type: cell-based, Mycobacterium abscessus
P. aeruginosa [1] = details: P. aeruginosa isolate 103; CLSI QC range in parenthesis; cited from earlier work
S. maltophilia = assay: MIC testing of CF isolates; type: cell-based, Stenotrophomonas maltophilia; details: S. maltophilia (SM21)
Acinetobacter baumannii = assay: Broth microdilution MIC (Example 12); type: cell-based
Pseudomonas aeruginosa [2] = assay: Broth microdilution MIC (Example 12); type: cell-based
P. aeruginosa [3] = details: P. aeruginosa isolate 103; CLSI QC range in parenthesis; cited from earlier work; remark: listed apart in the source
Klebsiella pneumoniae = assay: Broth microdilution MIC (Example 12); type: cell-based
[4] = system: Burkholderia cepacia complex; assay: Checkerboard FIC/FICI assay; type: cell-based, Burkholderia spp.; details: during FIC testing
[5] = system: Burkholderia cepacia complex; type: cell-based, Burkholderia spp.; details: initial MIC testing
Pseudomonas aeruginosa [6] = details: P. aeruginosa ATCC 27853; CLSI established QC range; cited from earlier work
P. aeruginosa [7] = assay: MIC testing of CF isolates and control strain
[8] = system: DNA synthesis in E. coli ATCC 25922; details: 16X the MIC
E. coli ATCC 25922 = assay: Broth microdilution MIC (Example 16); details: Escherichia coli
[9] = system: Gram-positive organisms (S. aureus, S. pneumoniae); assay: Broth microdilution MIC with pulmonary surfactant (Survanta); type: cell-based, Staphylococcus aureus, Streptococcus pneumoniae
[10] = system: cell wall synthesis in E. coli ATCC 25922; details: 8X the MIC
[11] = system: protein synthesis in E. coli ATCC 25922; details: 8X the MIC
[12] = ATCC25922, E. coli ATCC 25922, inoculum 1
[13] = ATCC25922, E. coli ATCC 25922, inoculum 2

O=C(O)c1cn(C2CC2)c2cc(N3CCNCC3)c(F)cc2c1=O [ciprofloxacin]
89.6%: inhibition of DNA synthesis [8]

C[C@@H](O)[C@H]1C(=O)N2C(C(=O)O)=C(SCCN=CN)C[C@H]12 [imipenem]
78.8%: inhibition of cell wall synthesis [10]
0.25 µg/mL: MIC ([9]; S. pneumoniae MMX 3162, 0 percent Survanta) | MIC ([9]; S. pneumoniae MMX 3162, 1 percent Survanta) | MIC ([9]; S. pneumoniae MMX 3162, 2.5 percent Survanta) | MIC ([9]; S. pneumoniae MMX 3162, 5 percent Survanta)
0.5 µg/mL: MIC ([9]; Staphylococcus aureus, ATCC43300, S. aureus ATCC 43300, 0 percent Survanta)
0.12 µg/mL: MIC (E. coli ATCC 25922; ATCC25922) | MIC (E. coli ATCC 25922; [12]) | MIC (E. coli ATCC 25922; [13])
0.03 µg/mL: MIC ([9]; S. pneumoniae ATCC 49619, 1 percent Survanta) | MIC ([9]; S. pneumoniae ATCC 49619, 2.5 percent Survanta)
≤ 0.015 µg/mL: MIC ([9]; S. pneumoniae ATCC 49619, 0 percent Survanta) | MIC ([9]; Staphylococcus aureus, ATCC29213, S. aureus ATCC 29213, 0 percent Survanta) | MIC ([9]; Staphylococcus aureus, ATCC29213, S. aureus ATCC 29213, 1 percent Survanta) | MIC ([9]; Staphylococcus aureus, ATCC29213, S. aureus ATCC 29213, 2.5 percent Survanta) | MIC ([9]; Staphylococcus aureus, ATCC29213, S. aureus ATCC 29213, 5 percent Survanta) | MIC ([9]; Staphylococcus aureus, ATCC29213, S. aureus ATCC 29213, 10 percent Survanta)

CN(C)[C@@H]1C(O)=C(C(N)=O)C(=O)[C@@]2(O)C(O)=C3C(=O)c4c(O)cccc4[C@@](C)(O)[C@H]3C[C@@H]12 [tetracycline]
93.8%: inhibition of protein synthesis [11]
1 µg/mL: MIC (E. coli ATCC 25922; ATCC25922) | MIC (E. coli ATCC 25922; [12]) | MIC (E. coli ATCC 25922; [13])
